According to patent US4283328A, “Preparation of dehydropeptides” (Research Corporation, priority 1979, dated 1981):
*1 amine or outer side, *2 acyl side, *3 side chain or, on linkers, in order; H or OH if unused. Where a SMILES comes first, the peptide text is derived from it. [ ]: non-standard residue; d: D form. The star is where a group is joined. X1 = O=C(C(=Cc1ccccc1)N[*:1])[*:2]; Cbz = O=C(OCc1ccccc1)*

Experiments:
α-chymotrypsin = assay: Enzymolysis with chymotrypsin (stability to enzymatic hydrolysis); assay type: in vitro ADME
Method: (§1) One purpose in introducing unsaturation into a peptide chain is to increase the binding of the peptides to active sites and protect the peptide from enzymatic cleavage, e.g. hydrolysis, in the bloodstream, thus enhancing activity. One method of measuring the stability of peptides to enzymatic hydrolysis is to treat the peptides with chymotrypsin which is specific for phenyl bonds.
(§2) A solution of 46 mg of N-Carbobenzoxy-L-prolyl-dehydrophenylalanyl-L-phenylalanine in 4 ml of methanol/water (1:1) was diluted to 10 ml with a 0.05 N tris buffer solution (pH 8) containing 0.46 mg of α-chymotrypsin. After standing 2 hours at 37° in a constant temperature bath, a 0.5 ml sample was treated with 0.5 ml of a 1.25% acetone solution of ninhydrin.

[1] = test system: angiotensin I converting enzyme; assay: Inhibition of angiotensin I converting enzyme; assay type: biochemical
[2] = Enzymolysis with chymotrypsin (stability to enzymatic hydrolysis); assay type: in vitro ADME; settings: chymotrypsin; 2 hours at 37°, tris buffer pH 8; ninhydrin color; read-out: hydrolysis by α-chymotrypsin
Method: as §1, §2

guinea pig ileum = assay: Guinea pig ileum contraction assay
Source text: This analog can also be made by solid phase protein synthesis.

blood pressure = assay: Guinea pig blood pressure test; assay type: in vivo; settings: relative to BDK = 100%
renin = assay: Renin inhibition; assay type: biochemical

In the case of O=C(N[C@@H](Cc1ccccc1)C(=O)O)C(=Cc1ccccc1)NC(=O)[C@@H]1CCCN1C(=O)OCc1ccccc1 [N-Carbobenzoxy-L-prolyl-dehydrophenylalanyl-L-phenylalanine], the “ninhydrin color formed after α-chymotrypsin treatment” value (α-chymotrypsin; 2 hours at 37°, tris buffer pH 8, methanol/water, compared with blank solution) is reported as “matched that of a blank solution” and the stability to chymotrypsin (α-chymotrypsin; treatment with chymotrypsin) is reported as “stable to chymotrypsin”.
For CC(C)C[C@H](NC(=O)[C@H](Cc1c[nH]cn1)NC(=O)C(=Cc1ccccc1)NC(=O)[C@@H]1CCCN1C(=O)OCc1ccccc1)C(=O)O [Z-Pro-ΔPhe-His-Leu.OH], the “inhibition of angiotensin I converting enzyme” value [1] was “inhibit angiotensin I converting enzyme”.
For O=C(O)[C@H](Cc1ccccc1)NC(=O)[C@H](Cc1ccccc1)NC(=O)[C@@H]1CCCN1C(=O)OCc1ccccc1 [ZPro-Phe-Phe.OH, reference compound] (Cbz-Pro-Phe-Phe-OH), the metabolised at 2 h [2] was 5%.
For N=C(N)NCCC[C@H](NC(=O)[C@H](Cc1ccccc1)NC(=O)[C@@H]1CCCN1C(=O)[C@H](CO)NC(=O)C(=Cc1ccccc1)NC(=O)CNC(=O)[C@@H]1CCCN1C(=O)[C@@H]1CCCN1C(=O)[C@@H](N)CCCNC(=N)N)C(=O)O [dehydro BDK, Arginyl-prolyl-prolyl-glycyl-dehydrophenylalanylseryl-prolyl-phenylalanyl-arginine] (H-RPPG[X1]SPFR-OH), the “increase in contraction, BDK as the standard at 100%” value (guinea pig ileum; guinea pig ileum, relative to BDK = 100%) was 247.6%, the “reduction of blood pressure, BDK as the standard at 100%” value (blood pressure; given intra-arterially) was 277.7% and the “decrease of blood pressure, BDK as the standard at 100%” value (blood pressure; given intravenously) was 6250%.
For COC(=O)[C@H](Cc1ccccc1)NC(=O)[C@@H](NC(=O)C(=Cc1ccccc1)NC(=O)[C@@H](N)CC(C)C)C(C)C [leudehydrophe-val-phe.OMe, Leucyl-dehydrophenylalanyl-valyl-phenylalanine methyl ester], the inhibition of renin (renin) was “inhibits renin”.
With CC(C)C[C@H](NC(=O)[C@H](Cc1c[nH]cn1)NC(=O)C(=Cc1ccccc1)NC(=O)[C@@H]1CCCN1)C(=O)O [tetrapeptide freed of the blocking group, H.Pro-ΔPhe-His-Leu.OH.2HBr] the “inhibition of angiotensin I converting enzyme” value [1] was “inactive”.
With Tyr-DAla-Gly-ΔPhe-Met-NH2 Acetate the “activity in the guinea pig ileum contraction assay” value (guinea pig ileum) was “active”.
